Among the data in a melting point compilation (Tetko et al.; mined from patent text by program, amines drawn as free bases though some values may be those of a salt) are melting point values, retold here.

Each structure is given as a SMILES string.

As for `OC12N=C(c3ccccc3)SC1(Br)Cc1cc(Cl)ccc12` (stereo unspecified), the melting point is 148 °C. The value for `O=c1oc(-c2ccc(Sc3ccccc3)cc2)nc2sccc12` was 203 to 204 °C; that for `COc1ccc(P(=O)(c2ccccc2)c2ccccc2)cc1OC` was 154 to 156 °C; that for `O=C1C(O)=C(CC2CCCC(C(F)(F)F)C2)C(=O)c2ccccc21` (stereo unspecified) was 142 °C. The value for `C=CCc1c(O)c(Cl)c(Cl)c2c1CC(C)(c1ccccc1)C2=O` (stereo unspecified) was 125 °C.

`CCOC(=O)c1c(Nc2ccccc2N)c(C)cn1C` gave a melting point of 90 °C.

In the case of `COc1ccc(-c2ccc(-c3ccc(F)cc3)nc2-c2ccc(OC)cc2)cc1`, the melting point is 118 to 120 °C. The value for `CCN1C(=O)C(=C(O)Cc2ccccc2)SC1=S` was 74 to 76 °C. The value for `CC(C)(C)OC(=O)NCc1cccc2c1C(=O)N(C1CCC(=O)NC1=O)C2=O` (stereo unspecified) was 180 to 182 °C. In the case of `O=C(O)C=C[C@H](Cc1ccc(-c2ccccc2)cc1)NCP(=O)(O)O` it was 231 to 233 °C. The compound `Cc1cn(C2OC(CO)C(O)C2O)c(=O)[nH]c1=O` (stereo unspecified) returned a melting point of 244 to 249 °C. In the case of `NCCOc1cc(Cl)cc(Cl)c1` it was 86 to 89 °C; in that of `COc1cc(NC(=O)Nc2ccccc2)c(O)c(OC)c1OC`, 123 to 125 °C. Consider `O=C(CCN1CCCCC1)Nc1cccc([N+](=O)[O-])c1`, for which the melting point was in the range of 95 to 96 °C. In the case of `CC(=O)N(c1ccc(O)cc1)N1CCOCC1` it was 183 to 184 °C.

Regarding `N#CCC(=C(C#N)C#N)c1ccccc1`, the melting point was 92 to 98 °C. The value for `CCOC(=O)COc1ccc(N2CCN(C(=O)OC(C)(C)C)CC2)cc1C=O` was 93 to 94 °C; that for `CCCN(CCC)c1c(CC)nn2c(-c3ccc(OC)cc3Cl)cccc12` was 73.6 to 76 °C; that for `CC(=O)N[C@@H](C)c1ccc(C(C)=O)cc1` was 125 to 128 °C. The value for `COc1ccc(-c2cc3ccccc3[nH]2)cc1NC(=S)N[C@H](C)c1ccccc1` was 179 to 181 °C; that for `N#Cc1c[nH]cc1C(F)(F)F` was 96 to 97 °C; that for `CC(=O)OCC(=O)C1=CCC2C3CCC4=CC(=O)C=CC4(C)C34OC4CC12C` (stereo unspecified) was 164 to 165 °C.

The compound `O=C(Nc1nc(C(=O)NC2CN3CCC2CC3)cs1)c1ccc(OCc2ccccc2)cc1` (stereo unspecified) came in with a melting point of 196 °C. For the compound `N#CCc1c(C(N)=O)ncn1C1CCCCO1` (stereo unspecified), the melting point was 198 to 199 °C. The value for `c1ccc(Cc2ccc(-c3ccccc3)[nH]2)cc1` was 82 to 84 °C; that for `Nc1cccnc1NCc1ccc(Cl)cc1` was 123 to 125 °C. In the case of `CN(C(=O)OCc1ccccc1)C1CCN(CC2(C)Cn3cc([N+](=O)[O-])nc3O2)CC1` (stereo unspecified) it was 139 °C; in that of `COc1cc(C(O)Cc2ccccc2)ccc1OCc1ccccc1` (stereo unspecified), 97 to 98 °C. `CC(C)(C)c1cc(CCCCCCc2cc(C(C)(C)C)c(O)c(C(C)(C)C)c2)cc(C(C)(C)C)c1O` yielded a melting point of 147 to 149 °C. In the case of `CCC1(O)CC(=O)OCc2c1cc1n(c2=O)Cc2cc3cccc(F)c3nc2-1` (stereo unspecified) it was over 250 °C. In the case of `Cc1cc(CSCCNC(=C[N+](=O)[O-])NCC(O)c2ccccc2)sc1CN(C)C` (stereo unspecified) it was 114 to 115 °C; in that of `CC(=O)c1csc(C(=O)C2C(=O)N(C(N)=O)c3ccc(Cl)cc32)c1` (stereo unspecified), 230 to 233 °C; in that of `CC(=O)NC=Cc1ccc(OCC(O)CNC(C)C)cc1` (stereo unspecified), 144 to 146 °C. The value for `CCc1cccc(C)c1CNc1cc(C(=O)O)cc2c1nc(COC)n2C` was 275 to 278 °C; that for `Cn1c(=O)c2c(NN)nccc2n(C)c1=O` was 244 °C. As to `c1ccc(Cn2c3ccccc3c3ccccc32)cc1`, the melting point was 121 to 122 °C.

`CSc1sc(-c2cn[nH]c2)c2c1C(=O)CC(C)(C)C2` had a melting point of 213 to 215 °C. In the case of `Cn1ncc2c1CCCc1c-2cnn1C` it was 191 to 195 °C. In the case of `CC(=O)Nc1cc(C)c([N+](=O)[O-])cc1CCOC(C)=O` it was 125 °C; in that of `COc1ccc(CCC(=O)O)cc1C(=O)NCc1cccnc1`, 175 to 176 °C; in that of `COC(=O)c1ccc(NC(=O)c2cc(C(C)C)c(C(C)C)o2)cc1`, 198 to 200 °C. In the case of `Fc1ccc(N2CCN(Cc3c[nH]c4ncccc34)CC2)cc1` it was 214 to 216 °C; in that of `CCOCCOc1cc(C(C)C)c(NC(=O)CN2CCN(CCCSc3nc4ccccc4o3)CC2)c(C(C)C)c1`, 115 to 117 °C; in that of `CNC(=S)Nc1c(C)cccc1N1CCOCC1`, 182 to 183 °C. Consider `Cc1cc(Cl)cc(C(=O)N(Cc2ccccc2)C2(C)CNC2)c1NC(=O)c1cc(C(F)(F)F)nn1-c1ncccc1Cl`, for which the melting point was in the range of 127 to 130 °C. In the case of `CCCCCCCCCCCCOc1ccccc1O` it was 46 °C; in that of `COc1cccc(Cc2ccc(-c3cnn4c(O)ncnc34)cc2)c1`, 264 to 268 °C; in that of `CN1Cc2c(c3cc(CCCN4CCN(c5nsc6ccccc56)CC4)ccc3[nH]c2=O)C1`, 206 to 208 °C. With `CC(C)(C)CC(=O)NCc1cccc2c1C(=O)N(C1CCC(=O)NC1=O)C2=O` (stereo unspecified), the melting point was 145 to 147 °C.

For the compound `CCOC(=O)c1c(C)cc2c(=O)n(-c3cccc(Cl)c3)c(C)nc2c1C`, the melting point fell in the range of 150 to 152 °C. The value for `O=C(Cc1ccc2[nH]cc(CCN3C(=O)c4ccccc4C3=O)c2c1)NCc1ccccc1` was 165 to 166 °C; that for `COc1ccc(OC)c(NC(=O)c2cc(Br)ccc2O)c1` was 207 to 209 °C. The value for `Cc1cccc(C)c1N(C(=O)CN)C(=O)CCl` was 135 to 137 °C; that for `C#CCN(C)c1nc(CO)cs1` was 69 to 70 °C.

Compound `CNC1(c2ccccc2Cl)C(=O)Nc2c(F)cc(Cl)cc21` (stereo unspecified) gave a melting point of 219 °C. The value for `CCN(CC)CCNC(=O)c1nc2ccc(I)cc2[nH]1` was 136 to 138 °C. The value for `Cc1nnc2cc(-c3ccncc3)ccn12` was 223 to 226 °C. The value for `O=C(O)CCc1cnoc1-c1ccc(F)cc1` was 126 to 127 °C. `O=C(O)COc1cccc2c1CCc1sc(SC(c3ccccc3F)c3ccccc3F)nc1-2` registered a melting point of 194 to 196 °C. Regarding `COc1cc2cn(N3C(C)CCCC3C)nc2cc1OC` (stereo unspecified), the melting point was in the range of 162 to 163 °C.

Regarding `COc1cc2c(c(Cl)c1Cl)C(=O)CCC2`, the melting point worked out at 132 °C. In the case of `C(#CCN(Cc1ccccc1)Cc1ccccc1)CN(Cc1ccccc1)Cc1ccccc1` it was 105 to 106 °C; in that of `COc1cc(C(=O)CC(c2ccncc2)C(C)(C)[N+](=O)[O-])cc(OC)c1OC` (stereo unspecified), 214 to 216 °C; in that of `C=CCNc1nc(N2CCc3ccccc3CC2)c(C#N)c(=O)n1CC=C`, 181 to 182 °C. In the case of `CCCc1ncc(CN2CCN(c3ccccc3OC)CC2)c(N)n1` it was 130 °C; in that of `Nc1ccc(-c2cc3c(Nc4ccc(Cl)cc4F)ncnc3o2)cc1`, 229 to 232 °C.

Turning to `C#CC1(OC(C)=O)CCC2C3CCC4=CC(=O)CCC4C3C(C(F)F)CC21C` (stereo unspecified), the melting point fell in the range of 157 to 180 °C. Regarding `COc1cc(C(=O)N(C(C)C)C2CCCCC2)ccc1Cn1c(CN(C)C)nc2ncccc21`, the melting point lay in the range of 141 to 142 °C.

`CC(Cc1cc2ccccc2[nH]1)(NC(=O)OC1C2CC3CC(C2)CC1C3)C(=O)NCC(NC(=O)CCC(=O)OCc1ccccc1)c1ccccc1` (stereo unspecified): the melting point is 109 to 113 °C. In turn, `CCCC(SCC(=O)O)c1cc2c(cc1C)OCO2` (stereo unspecified) registered a melting point of 77.5 to 78 °C.

On to `COC(=O)C(=O)c1ccc(SC)c(Cl)c1`, for which the melting point lay in the range of 67.9 to 70.2 °C. In the case of `COc1ccc2cc(C(C)C(=O)NCCN(O)C(N)=O)ccc2c1` (stereo unspecified) it was 162 °C; in that of `CC(=O)OCC(C)(C)C(=O)N(O)Cc1ccccc1Cl`, 78 to 80 °C; in that of `CC(C)(C)C(NC(=O)Cc1ccc2ccccc2c1)NC(=NC#N)Nc1cccc2ncccc12` (stereo unspecified), 200 to 201 °C. The value for `O=C1Nc2cccc(NC(=O)c3cccn(-c4ccc(F)cc4)c3=O)c2/C1=C/c1ccc[nH]1` was over 300 °C. In the case of `COC(=O)c1cc(O)n2nc(C)nc2n1` it was 170 to 174 °C; in that of `Cc1c(Cc2ccccc2)oc2cc(O)c(O)cc12`, 95.5 to 98 °C; in that of `Cc1ccc(-n2nc(CC(=O)N(C)C)c3c4ccc(Cl)cc4n(C)c3c2=O)cn1`, 253 to 255 °C.

For the compound `CCn1cc(C(=O)O)c(=O)c2ccc(-c3cccnc3)cc21`, the melting point was in the range of 268 to 269 °C.

As to `CCc1nc2c(N)nc3ccccc3c2n1CCCCS(=O)(=O)c1ncccn1`, the melting point fell in the range of 172 to 175 °C. In the case of `CCCNCC1Cc2cc(F)cc(-c3c(Cl)cccc3Cl)c2O1` (stereo unspecified) it was over 250 °C; in that of `CC(C)(Oc1ccc(CCC(=O)c2ccc(-c3ccc(C(F)(F)F)cc3)s2)c(F)c1F)C(=O)O`, 165 to 166 °C. The value for `Cc1cnc(NC2CCC(CCN3CCN(c4ccccc4)CC3)CC2)nc1` (stereo unspecified) was 190 °C. The value for `COc1ccc(CN2CCc3c(c(=O)oc4cc(OC)ccc34)C2)cc1` was 101 to 103 °C; that for `CC(C)C[C@H](NC(=O)OC(C)(C)C)C(=O)N1CCN(C(c2ccc(F)cc2)c2ccc(F)cc2)CC1` was 59 to 66 °C.

In the case of `CC(C)(C)NC(=O)CN1C(=O)C(N)CC(c2ccccc2F)c2ccccc21` (stereo unspecified), the melting point lay within 190 to 195 °C. The value for `O=C(c1ccccc1)N(c1ccccc1)c1ccc(O)cc1` was 257 to 260 °C; that for `O=C(O)Cn1c(-c2cc(Cl)ccn2)nc2cccnc21` was 218 to 220 °C. Take `COc1ccc2c(c1)CCC1C3=CC(C)=C(OC(C)=O)C3(C)CCC21` (stereo unspecified): the melting point lay within 129 to 130 °C.

Compound `COc1cc(OC)nc(NC(=O)NS(=O)(=O)c2ccccc2CS(=O)(=O)N(C)C)n1` returned a melting point of 172 to 176 °C.

With `Cc1cccc(C)c1NC(N)=NN`, the melting point fell in the range of 192 to 193 °C.
